In one assay the test system is A2058. Kind of assay: MTT assay, A2058. The class given is cell-based. The settings on record: human melanoma, 48 h incubation. On the procedure:
(§1) The human cancer cell lines HeLa (cervical adenocarcinoma), HCT116 (colorectal adenocarcinoma), A2780 (human ovarian adenocarcinoma), A2780cis (human ovarian adenocarcinoma cisplatin-resistant), Jurkat (acute T-lymphoblastic leukemia), and Hep G2 (hepatocellular carcinoma) were cultured in an RPMI 1640 growth medium (Biosera, Kansas City, MO, USA). The cancer cell lines MDA-MB-231 (triple-negative breast adenocarcinoma), A2058 (human melanoma), U87 (human glioblastoma), PATU 8902 (pancreas adenocarcinoma), and A549 (human lung adenocarcinoma) were cultured in a DMEM medium (Biosera, Kansas City, MO, USA). The media were supplemented with 10% fetal bovine serum (FBS) (Invitrogen, Carlsbad, CA, USA) and 1× HyClone™ Antibiotic/Antimycotic Solution (GE Healthcare, Piscataway, NJ, USA).
(§2) To evaluate the IC50 (half-maximal inhibitory concentration) and confirm the antiproliferative activity of the tested substances, we employed the colorimetric MTT assay (3-(4,5-dimethylthiazol-2-yl)-2,5-diphenyltetrazolium bromide) (Sigma-Aldrich Chemie, Steinheim, Germany). The cell lines were seeded in 96-well plates at a density of 5 × 10^3 to 10 × 10^3 cells per well. After 24 h, the tested substances, dissolved in the cultivation medium, were added to the cells at final concentrations of 5, 10, 20, and 50 µmol/L. The cells were then incubated for 48 h under standard cultivation conditions. Following the incubation period, MTT was added to each well. The MTT was metabolized by the cells into insoluble formazan crystals, which were subsequently dissolved by adding 100 µL of 10% SDS. After another 24 h, the absorbance was measured at a wavelength of 540 nm using the automated Cytation™ 3 Cell Imaging Multi-Mode Reader (Biotek, Winooski, VT, USA). The experiments were performed in at least three independent repetitions. IC50 values were calculated using a nonlinear regression method.
Background: Tetrazolium dyes change colour on reduction, which living cells bring about.

For a further assay, the system named is Bj-5ta. Kind of assay: MTT assay, BJ-5ta non-cancerous fibroblasts. The assay is classed as cell-based, human. The settings on record: non-cancerous dermal fibroblasts, 48 h incubation. On the procedure: (§3) The non-cancerous cell line MCF-10A (human epithelial breast cells) was cultured in a DMEM F12 medium supplemented with 10% FBS (Invitrogen, Carlsbad, CA, USA), 1× HyClone™ Antibiotic/Antimycotic Solution (GE Healthcare, Piscataway, NJ, USA), insulin, hEGF, and hydrocortisone. The BJ-5ta cells (human dermal fibroblasts) were cultured in a DMEM-M199 4:1 medium mixture, supplemented with 10% FBS and hygromycin B (0.01 mg/mL). The cells were maintained under standard conditions with an atmosphere containing 5% CO2 at 37 °C. Cell viability, estimated by trypan blue exclusion, was consistently greater than 95% before each experiment.
as §2

In another assay the test system is A549. Put plainly: MTT assay, A549. The assay is classed as cell-based, human. The settings on record: lung adenocarcinoma, 48 h incubation. The protocol: as §1, §2
Another assay has as its system PATU. Put plainly: MTT assay, PATU 8902. The settings on record: pancreas adenocarcinoma, 48 h incubation. The assay is classed as cell-based, human. On the procedure: as §1, §2
The subject of the next assay is Hep G2. Put plainly: MTT assay, Hep G2. The assay is classed as cell-based, human. The settings on record: hepatocellular carcinoma, 48 h incubation. On the procedure:
as §1, §2

The subject of another assay is HeLa. Put plainly: MTT assay, HeLa. The settings on record: cervical adenocarcinoma, 48 h incubation. The assay is classed as cell-based, human. The protocol: as §1, §2
The next assay relates to A2780. Kind of assay: MTT assay, A2780. The settings on record: ovarian adenocarcinoma, 48 h incubation. The assay is classed as cell-based, human. The protocol:
as §1, §2

The next assay deals with MCF-10A. Put plainly: MTT assay, MCF-10A non-cancerous cells. The class given is cell-based, human. The settings on record: non-cancerous epithelial breast cells, 48 h incubation. On the procedure: as §3, §2
For a further assay, the system named is HCT116. Kind of assay: MTT assay, HCT116. The assay is classed as cell-based, human. The settings on record: colorectal adenocarcinoma, 48 h incubation. The protocol: as §1, §2

Results on twelve molecules are retold here after publication PMC11280325, “Design, Synthesis, and Characterization of Novel Thiazolidine-2,4-Dione-Acridine Hybrids as Antitumor Agents” (Molecules, 2024).

Where a name gives a salt, the structure may show the parent alone.

For the molecule `O=C(COc1ccc(/C=C2\SC(=O)N(Cc3c4ccccc4nc4ccccc34)C2=O)cc1)Nc1ccccc1` [7a·2HCl, 2-(4-{[(5Z)-3-[(Acridin-9-yl)methyl]-2,4-dioxo-1,3-thiazolidin-5-ylidene]methyl}phenoxy)-N-phenylacetamide dihydrochloride], the concentration for half-maximal inhibition (IC50) with A2058 was above 50 µM; with Bj-5ta, 29.9 ± 7.2 µM; in the assay on A549, 17 ± 1.35 µM; with PATU it was above 50 µM; in the assay on Hep G2 it was above 50 µM; in the assay on HeLa it was 17.7 ± 4.04 µM. Also, the IC50 in the assay with A2780 was above 50 µM; in the assay on MCF-10A, 17.6 ± 4.3 µM; with HCT116 it was 13.1 ± 2.3 µM.

As for `COc1cc(NC(=O)COc2ccc(/C=C3\SC(=O)N(Cc4c5ccccc5nc5ccccc45)C3=O)cc2)cc(OC)c1` [7b·2HCl, 2-(4-{[(5Z)-3-[(Acridin-9-yl)methyl]-2,4-dioxo-1,3-thiazolidin-5-ylidene]methyl}phenoxy)-N-(3,5-dimethoxyphenyl)acetamide dihydrochloride], the concentration for half-maximal inhibition (IC50) in the assay on A2058 was above 50 µM; in the assay with Bj-5ta, 34.5 ± 5.5 µM; in the assay with A549, 21.9 ± 3.35 µM; in the assay with PATU, above 50 µM; with Hep G2, above 50 µM; in the assay on HeLa, 6.11 ± 1.2 µM. The IC50 is above 50 µM in the assay on A2780, 11.3 ± 2.05 µM with MCF-10A and 17.4 ± 1.74 µM in the assay on HCT116.

As for `O=C(COc1ccc(/C=C2\SC(=O)N(Cc3cccc4cc5ccccc5nc34)C2=O)cc1)Nc1ccccc1` [8a·HCl, 2-(4-{[(5Z)-3-[(Acridin-4-yl)methyl]-2,4-dioxo-1,3-thiazolidin-5-ylidene]methyl}phenoxy)-N-phenylacetamide hydrochloride], the half-maximal inhibitory concentration (IC50) was above 50 µM with A2058; above 50 µM in the assay with Bj-5ta; above 50 µM in the assay on A549; above 50 µM with PATU; above 50 µM in the assay on Hep G2; 42.6 ± 0.75 µM in the assay with HeLa. In the assay on HCT116, the concentration for half-maximal inhibition (IC50) was above 50 µM.

For `O=C(COc1ccc(/C=C2\SC(=O)N(Cc3cccc4cc5ccccc5nc34)C2=O)cc1)Nc1ccc([N+](=O)[O-])cc1` [8d·HCl, 2-(4-{[(5Z)-3-[(Acridin-4-yl)methyl]-2,4-dioxo-1,3-thiazolidin-5-ylidene]methyl}phenoxy)-N-(4-nitrophenyl)acetamide hydrochloride], the IC50 with A2058, in the assay on Bj-5ta, with A549, in the assay on PATU, with Hep G2 and with HeLa was above 50 µM each time. The same molecule returned an IC50 in the assay with HCT116 above 50 µM.

For `O=C(COc1ccc(/C=C2\SC(=O)N(Cc3cccc4cc5ccccc5nc34)C2=O)cc1)Nc1ccccc1C(F)(F)F` [8e·HCl, 2-(4-{[(5Z)-3-[(Acridin-4-yl)methyl]-2,4-dioxo-1,3-thiazolidin-5-ylidene]methyl}phenoxy)-N-[2-(trifluoromethyl)phenyl]acetamid hydrochloride], the half-maximal inhibitory concentration (IC50) with A2058, with Bj-5ta, in the assay with A549, in the assay on PATU, in the assay on Hep G2 and in the assay on HeLa was above 50 µM throughout. In the assay with HCT116, this molecule registered a half-maximal inhibitory concentration (IC50) above 50 µM.

As for `O=C(COc1ccc(/C=C2\SC(=O)N(Cc3cccc4cc5ccccc5nc34)C2=O)cc1)Nc1cccc(C(F)(F)F)c1` [8f·HCl, 2-(4-{[(5Z)-3-[(Acridin-4-yl)methyl]-2,4-dioxo-1,3-thiazolidin-5-ylidene]methyl}phenoxy)-N-[3-(trifluoromethyl)phenyl]acetamide hydrochloride], the IC50 with A2058, in the assay on Bj-5ta, in the assay with A549, with PATU, with Hep G2 and in the assay with HeLa was above 50 µM in each case. In the assay on HCT116, this molecule returned an IC50 above 50 µM.

Consider `COc1cc(/C=C2\SC(=O)N(Cc3cccc4cc5ccccc5nc34)C2=O)ccc1OCC(=O)Nc1ccccc1` [13a·HCl, 2-(4-{[(5Z)-3-[(Acridin-4-yl)methyl]-2,4-dioxo-1,3-thiazolidin-5-ylidene]methyl}-2-methoxyphenoxy)-N-phenylacetamide hydrochloride], for which the concentration for half-maximal inhibition (IC50) with A2058, in the assay with Bj-5ta, with A549, in the assay with PATU, in the assay with Hep G2 and in the assay on HeLa was above 50 µM throughout. Besides, the IC50 with HCT116 was above 50 µM.

Turning to `COc1cc(NC(=O)COc2ccc(/C=C3\SC(=O)N(Cc4cccc5cc6ccccc6nc45)C3=O)cc2OC)cc(OC)c1` [13b·HCl, 2-(4-{[(5Z)-3-[(Acridin-4-yl)methyl]-2,4-dioxo-1,3-thiazolidin-5-ylidene]methyl}-2-methoxyphenoxy)-N-(3,5-dimethoxyphenyl)acetamide hydrochloride], the IC50 was above 50 µM with A2058; above 50 µM in the assay with Bj-5ta; above 50 µM in the assay with A549; above 50 µM with PATU; above 50 µM with Hep G2; 45.5 ± 2.9 µM in the assay on HeLa. Besides, the IC50 with HCT116 is above 50 µM.

`COc1cc(/C=C2\SC(=O)N(Cc3cccc4cc5ccccc5nc34)C2=O)ccc1OCC(=O)Nc1ccc([N+](=O)[O-])cc1` [13d·HCl, 2-(4-{[(5Z)-3-[(Acridin-4-yl)methyl]-2,4-dioxo-1,3-thiazolidin-5-ylidene]methyl}-2-methoxyphenoxy)-N-(4-nitrophenyl)acetamide hydrochloride]: the IC50 in the assay with A2058, in the assay on Bj-5ta, with A549, in the assay with PATU, with Hep G2 and in the assay with HeLa was above 50 µM throughout. Besides, in the assay with HCT116, the IC50 was above 50 µM.

As for `COc1cc(/C=C2\SC(=O)N(Cc3cccc4cc5ccccc5nc34)C2=O)ccc1OCC(=O)Nc1ccccc1C(F)(F)F` [13e·HCl, 2-(4-{[(5Z)-3-[(Acridin-4-yl)methyl]-2,4-dioxo-1,3-thiazolidin-5-ylidene]methyl}-2-methoxyphenoxy)-N-[2-(trifluoromethyl)phenyl]acetamide hydrochloride], the 50% inhibitory concentration (IC50) in the assay with A2058 is above 50 µM; in the assay with Bj-5ta, above 50 µM; in the assay with A549, 42.8 ± 5.4 µM; in the assay with PATU, 39.8 ± 7.1 µM; with Hep G2 it was above 50 µM; with HeLa it was 13.7 ± 4.5 µM. In the assay on HCT116, this molecule displayed an IC50 of 14.5 ± 3.4 µM.

Turning to `COc1cc(/C=C2\SC(=O)N(Cc3cccc4cc5ccccc5nc34)C2=O)ccc1OCC(=O)Nc1cccc(C(F)(F)F)c1` [13f·HCl, 2-(4-{[(5Z)-3-[(Acridin-4-yl)methyl]-2,4-dioxo-1,3-thiazolidin-5-ylidene]methyl}-2-methoxyphenoxy)-N-[3-(trifluoromethyl)phenyl]acetamide hydrochloride], the concentration for half-maximal inhibition (IC50) was above 50 µM in the assay on A2058; above 50 µM with Bj-5ta; 38.2 ± 7.35 µM in the assay with A549; 43.7 ± 5.8 µM in the assay on PATU; above 50 µM with Hep G2; 12.3 ± 4.9 µM in the assay on HeLa. Moreover, 14.3 ± 3.2 µM corresponded to half-maximal inhibition in the assay with HCT116 (IC50).

In the case of `COc1cc(/C=C2\SC(=O)N(Cc3cccc4cc5ccccc5nc34)C2=O)ccc1OCC(=O)Nc1cc(C(F)(F)F)cc(C(F)(F)F)c1` [13g·HCl, 2-(4-{[(5Z)-3-[(Acridin-4-yl)methyl]-2,4-dioxo-1,3-thiazolidin-5-ylidene]methyl}-2-methoxyphenoxy)-N-[3,5-bis(trifluoromethyl)phenyl]acetamide hydrochloride], the IC50 was above 50 µM in the assay with A2058; above 50 µM in the assay on Bj-5ta; above 50 µM with A549; above 50 µM with PATU; above 50 µM in the assay with Hep G2; 34.7 ± 6.4 µM in the assay with HeLa. The IC50 in the assay on HCT116 was above 50 µM.

By IC50 is commonly meant the point on the concentration scale where inhibition reaches its midpoint. A low value points to greater potency in that assay.
